Assay results reported in patent US5242945A, “Tetronic and thiotetronic acid derivatives as phospholipase A2 inhibitors” (American Home Products Corporation, priority 1991, dated 1993).
Like-named read-outs stand apart in the source and are kept apart here.

Tests used:
human platelet PLA2 = target: T1, human platelet PLA2 (Homo sapiens, UniProt P14555); assay: in vitro isolated phospholipase A2 assay, human platelet PLA2; assay type: biochemical; settings: at 10 μM; + values given without explanation; read-out: % Inhibition HP (human platelet)
T1 construct: platelet acid extract PLA2; from tissue; host or cells: human platelets, semipurified acid extract
T1 sequence (P14555 21-144): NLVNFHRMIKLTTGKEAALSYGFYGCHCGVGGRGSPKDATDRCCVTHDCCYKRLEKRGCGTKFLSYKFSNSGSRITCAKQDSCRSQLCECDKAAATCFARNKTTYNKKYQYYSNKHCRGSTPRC
Summary of the method: (§1)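 PLA2 from semipurified human platelet acid extract or purified human synovial fluid, preincubated 30 min at room temperature with compound. ³H-arachidonate-labelled E. coli substrate then added in Tris-HCl pH 7.5, with enzyme giving about 12% hydrolysis. Reaction ran 10 min at 37° C; released arachidonic acid recovered on NH2 columns and measured by β-counting.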

[1] = target: T2, human synovial fluid PLA2 (Homo sapiens, UniProt P14555); assay: in vitro isolated phospholipase A2 assay, human synovial fluid PLA2; assay type: biochemical; settings: for IC50: Table IV, read-out: IC50 HSF (human synovial fluid); for inhibition at 10 µM: + values given without explanation, read-out: % Inhibition HSF (human synovial fluid)
T2 construct: Purified human synovial fluid; from tissue; host or cells: human synovial fluid
T2 sequence (P14555 21-144): T1 sequence (P14555 21-144)
Summary of the method: as §1

carrageenan paw edema = assay: rat carrageenan paw edema assay; assay type: in vivo, rat (Sprague-Dawley); settings: 50 mg/kg peroral
Experimental: The compounds of the invention are further tested in the rat carrageenan paw edema assay to determine their ability to inhibit the acute inflammatory response.
140-180 g Male Sprague-Dawley rats, in groups of 6 animals are injected subcutaneously in the right paw with 0.1 mL of 1% carrageenan at zero time. Mercury plethysmographic readings (mL) of the paw are made at zero time and 3 hours later. Test compounds are suspended or dissolved in 0.5% methylcellulose and given perorally 1 hour prior to carrageenan administration.
The increase in paw volume (edema in mL) produced by the carrageenan is measured. Paw edema is calculated (3 hour volume minus zero time volume), and percent inhibition of edema is determined. Unpaired Student's t-test is used to determine statistical significance.

[2] = test system: lipoxygenase (LTB4 or 5HETE synthesis); assay: inhibition of LTB4 and 5-HETE synthesis by rat glycogen-elicited polymorphonuclear leukocytes; assay type: cell-based, rat (female Wistar); settings: Leukocyte, rat PMN; for inhibition at 10 µM: + with * denotes potentiation
Description: This is especially true with respect to 5,12-diHETE, which is also denoted as LTB4 [see Ford-Hitchinson, J. Roy. Soc. Med., 74, 831 (1981)]. Compounds which inhibit the PLA2 -mediated release of arachidonic acid thereby effectively prevent the oxidation of arachidonic acid to the various leukotriene products via the lipoxygenase cascade. Accordingly, the specificity of action of PLA2 inhibitors can be determined by the activity of test compounds in this assay, which measures the ability of compounds to inhibit the synthesis of LTB4 and 5-HETE by rat glycogen-elicited polymorphonuclear leukocytes (PMN) in the presence of exogenous substrate.
(§2) Rat polymorphonuclear leukocytes (PMNs) are obtained from female Wistar rats (150-200 g) which receive an injection of 6% glycogen (10 ml i.p.). Rats are sacrificed 18-24 hours post injection by CO2 asphyxiation and the elicited cells are harvested by peritoneal lavage using physiological saline (0.9% NaCl). The exudate is centrifuged at 400 xg for 10 minutes. The supernatant fluid is discarded and the cell pellet is resuspended to a concentration of 2.0×10^7 cells/mL in HBSS containing Ca^++ and Mg^++ and 10 μM L-cysteine.
(§3) To 1 mL aliquots of cell suspension, test drugs or vehicle are added, then preincubated at 37° C. for 10 minutes. A23187 (1 μM), [^3 H]-AA (3.0 μCi/mL) and unlabeled AA (1 μM) are then added and the samples are further incubated for 10 minutes. The reaction is terminated by centrifugation and pelleting cells. Supernatants are then analyzed by HPLC analysis on a 15 cm×4.6 mm ID supelcosil LC-18 (Supelco)(3M) column, using a two solvent system at a flow rate of 1.4 mL total flow as follows:
Injections: 140 μL of each supernatant is injected directly onto column and ^3 H arachidonic acid metabolites are monitored using an on-line radioactivity detector (Ramona, IN/US, Fairfield, N.J.).
Co-chromatography with standard [^3 H] leukotriene B4 (LTB4) in medium of stimulated PMN exposed to drug is compared to that found in medium of stimulated cells exposed to no drug, generating percent inhibition.
Results are expressed as percent inhibition at a given compound dose or as an IC50 value.

[3] = test system: cyclooxygenase (PGE2 or TxB2 synthesis); assay: inhibition of synthesis of cyclooxygenase products PGE2 and TxB2 by rat polymorphonuclear leukocytes; assay type: cell-based, rat (female Wistar); settings: Leukocyte, rat PMN; for inhibition at 10 µM: + with * denotes potentiation
Experimental: as §2, §3
In this assay, the procedure of Example 58 is carried out as described. However, in order to determine cyclooxygenase activity, the samples are co-chromatographed with authentic reference [^3 H]-TxB2 or [^3 H]-PGE2.
The results are calculated as in Example 58 and presented below: […]

[4] = test system: purified PLA2, from the diamond back cotton mouth snake (A. piscivorus piscivorus); assay: in vivo PLA2 murine paw edema assay; set-up: species or system A. piscivorus piscivorus PLA2 in CD-1 mice
Experimental: The ability of the compounds of the invention to inhibit paw edema induced by the exogenous administration of PLA2 is measured in the in vivo PLA2 murine paw edema assay.
Non-fasted, male CD-1 mice (8 weeks old; 31-36 grams) are placed in plastic boxes in groups of six. The right hind paw volume is measured using mercury plethysmography (zero time). Compounds are dosed orally (0.5 mL of 0.5% Tween-80) 1 or 3 hours prior to PLA2 injection or intravenously (0.2 mL in 0.3% dimethylsulfoxide/saline) 3 minutes prior to PLA2 injection. A solution of purified PLA2, from the diamond back cotton mouth snake (A. piscivorus piscivorus) is prepared in saline at a concentration of 6 μg/mL. Fifty (50) μL (0.3 μg) of this PLA2 solution is injected subcutaneously into the right hind paw with a plastic 1 mL plastic syringe (27 gauge, 1" needle). Paw volume of the injected paw is measured again at 10 minutes, 30 minutes and 60 minutes after PLA2 injection. Animals are euthanized with CO2 at the completion of the study.
The paw edema is calculated by subtracting the zero time volume from the volume recorded at each time period. Mean paw edema for each treatment group is then calculated and expressed as (μL±S.E.). Drug effects are expressed as a percent change from control (vehicle) values. Statistical significance is determined by a one-way analysis of variance with LSD comparison to control (p<0.05). ED50 's are determined using […].

[5] = test system: purified PLA2, from the diamond back cotton mouth snake (A. piscivorus piscivorus); assay: in vivo PLA2 murine paw edema assay; set-up: species or system A. piscivorus piscivorus PLA2 in CD-1 mice; remark: listed apart in the source
[6] = test system: lipoxygenase and/or cyclooxygenase pathways of arachidonic acid metabolism; assay: in vivo murine zymosan peritonitis assay; set-up: species or system mouse (CD-1); settings: p.o.
Experimental: The compounds of the invention are evaluated for their ability to inhibit the lipoxygenase and/or cyclooxygenase pathways of arachidonic acid metabolism in the in vivo murine zymosan peritonitis assay.
Male CD-1 mice (8 weeks old) are placed in plastic boxes in groups of six. Animals are injected with 1 mL i.p. of either 1% zymosan in pyrogen free 0.9% saline or saline (unstimulated control). Compounds are dosed orally 1 hour prior to zymosan injection. Twenty minutes after zymosan injection, the mice are asphyxiated by CO2 inhalation and the peritoneal cavity is lavaged with 2 mL ice cold Hanks Balanced Salt Solution (HBSS) without CaCl2, MgSO4. 7H2 O and MgCl2.6H2 O. Peritoneal lavage fluid from each mouse is removed by syringe and placed in 5 mL plastic test tubes put on ice and volume is noted. Preparation of samples for evaluation by ELISA is as follows: Samples are centrifuged at 800 xg for 15 minutes; 1 mL of the supernatant is added to 8 mL ice cold methanol and kept at -70° C. overnight to precipitate protein; and samples are then centrifuged at 800 xg for 15 minutes, followed by a drying procedure in a Savant speed vac concentrator. The samples are reconstituted with 1 mL ice cold ELISA buffer and stored at -70° C. until assayed. The assay for eicosanoids (LTC4 and 6-keto-PGF1α) is performed according to conventional ELISA procedures.
Compounds to be tested orally are suspended in 0.5% Tween 80. Compounds to be tested intraperitoneally are suspended in 0.5% methylcellulose in 0.9% saline.
The total metabolite level in lavage fluid/mouse is calculated and the significance is determined by a one-way analysis of variance with LSD comparisons to control (p≤0.05). Drug effects are expressed as a percent change from control values.

AA-induced ear edema = assay: arachidonic acid (AA)-induced murine ear edema assay; assay type: in vivo, mouse (Swiss Webster); settings: Mus musculus, 1 h, oral

SMILES	inhibition at 10 µM (human platelet PLA2) [%]	IC50 [1] [µM]	inhibition at 10 µM [1] [%]	% Inhibition (carrageenan paw edema) [%]	inhibition at 10 µM ([2]; read-out: % Inhibition LTB4) [%]	inhibition at 10 µM ([3]; read-out: % Inhibition TxB2) [%]	other results
COc1ccc(/C=C/C(=O)C2=C(O)COC2=O)cc1 [Example 6, (E)-4-Hydroxy-3-(3-(4-methoxyphenyl)-1-oxo-2-propenyl)-2 (5H)-furanone]	0	8.7	59	31			
O=C(/C=C/c1ccc(Cl)cc1)C1=C(O)COC1=O [Example 7, (E)-4-Hydroxy-3-(3-(4-chlorophenyl)-1-oxo-2-propenyl)-2(5H)-furanone]	0	1.8	98	47	13	18	% Change in Edema 10 min ([4]; 10 mg/kg i.v.): -19%; % Change in Edema 30 min ([4]; 10 mg/kg i.v.): +39%; % Change in Edema 60 min ([4]; 10 mg/kg i.v.): +15%; % Change in Edema 10 min ([4]; 100 mg/kg p.o.): -24%; % Change in Edema 30 min ([4]; 100 mg/kg p.o.): -4%; % Change in Edema 60 min ([4]; 100 mg/kg p.o.): -9%
O=C(/C=C/c1ccccc1)C1=C(O)COC1=O [Example 8, (E)-4-Hydroxy-3-(3-(phenyl)-1-oxo-2-propenyl)-2(5H)-furanone]	3	10.5	77		10	1	
O=C(/C=C/c1cccc([N+](=O)[O-])c1)C1=C(O)COC1=O [Example 12, (E)-4-Hydroxy-3-(3-(3-nitrophenyl)-1-oxo-2-propenyl)-2 (5H)-furanone]	11	2	82	30	5	9	% Change in Edema 10 min ([4]; 10 mg/kg i.v.): -11%; % Change in Edema 30 min ([4]; 10 mg/kg i.v.): -19%; % Change in Edema 60 min ([4]; 10 mg/kg i.v.): +24%; % Change in Edema 10 min ([4]; 100 mg/kg p.o.): -27%; % Change in Edema 30 min ([4]; 100 mg/kg p.o.): -33%; % Change in Edema 60 min ([4]; 100 mg/kg p.o.): -2%
CCC/C=C\CCCCCCCCC(=O)C1=C(O)COC1=O [Example 23, 4-Hydroxy-3-((Z)-1-oxo-10-tetradecenyl)-2(5H)-furanone]	52.7		44		83	8	inhibition at 10 µM ([2]; read-out: % Inhibition 5-HETE): 93%; inhibition at 10 µM ([3]; read-out: % Inhibition PGE2): 1%; % Change in Edema 30 min ([5]; 1 mg/kg i.p.): -41%; % Change in Edema 60 min ([5]; 1 mg/kg i.p.): -20%; % Change in Edema 30 min ([5]; 10 mg/kg i.p.): -48%; % Change in Edema 60 min ([5]; 10 mg/kg i.p.): -28%
CCCCCC/C=C\CCCCCCCC(=O)C1=C(O)COC1=O [Example 26, 4-Hydroxy-3-((Z)-1-oxo-9-hexadecenyl)-2(5H)-furanone]	24.4		1.7		82	1	inhibition at 10 µM ([2]; read-out: % Inhibition 5-HETE): 85%; inhibition at 10 µM ([3]; read-out: % Inhibition PGE2): 6%; % Change in Edema 30 min ([5]; 1 mg/kg i.p.): -62%; % Change in Edema 60 min ([5]; 1 mg/kg i.p.): -38%; % Change in Edema 30 min ([5]; 10 mg/kg i.p.): -67%; % Change in Edema 60 min ([5]; 10 mg/kg i.p.): -43%
CC(C)Cc1ccc(C(C)C(=O)O)cc1 (stereo not drawn) [Ibuprofen]							ED50 LTC4 [6]: Not Active
O=C1CCN(c2ccccc2)N1 [Phenidone]							ED50 (AA-induced ear edema): 85 mg/kg
CCc1cccc2c3c([nH]c12)C(CC)(CC(=O)O)OCC3 (stereo not drawn) [etodolac, reference compound]							inhibition at 0.5 µM ([2]; at 0.5 μM): 21%; inhibition at 0.5 µM ([3]; at 0.5 μM): 100%
